Reference: ChEMBL document CHEMBL4312004, “From bench to counter: Discovery and validation of a peony extract as tyrosinase inhibiting cosmeceutical” (Eur J Med Chem, 2019)
Active and inactive are the calls of the source. The calls are words filed in the database; no cut-off is given here.

What was measured:
B16-F10 [1] = test: Antimelanogenic activity against C57BL/6 mouse B16F10 cells incubated for 10 to 50 uM incubated for 24 hrs; assay type: functional
B16-F10 [2] = test: Cytotoxicity against C57BL/6 mouse B16F10 cells assessed as reduction in cell viability incubated for 72 hrs by SRB assay relative to control; assay type: cell-based; conditions: b16-f10, 72 h
[3] = Stability of compound in DMSO at 10 mM incubated for 24 hrs by HPLC analysis; assay type: physicochemical; conditions: 10000 µM
B16-F10 [4] = test: Antimelanogenic activity against C57BL/6 mouse B16F10 cells at 50 uM incubated for 72 hrs relative to control; assay type: functional
[5] = Stability of compound in IMDM cell medium incubated for 24 hrs by HPLC analysis; assay type: physicochemical
[6] = biological target: T1, Tyrosinase (Agaricus bisporus) (UniProt O42713); test: Ratio of IC50 for arbutin to IC50 for test compound for inhibition of mushroom tyrosinase
T1 sequence (whole entry): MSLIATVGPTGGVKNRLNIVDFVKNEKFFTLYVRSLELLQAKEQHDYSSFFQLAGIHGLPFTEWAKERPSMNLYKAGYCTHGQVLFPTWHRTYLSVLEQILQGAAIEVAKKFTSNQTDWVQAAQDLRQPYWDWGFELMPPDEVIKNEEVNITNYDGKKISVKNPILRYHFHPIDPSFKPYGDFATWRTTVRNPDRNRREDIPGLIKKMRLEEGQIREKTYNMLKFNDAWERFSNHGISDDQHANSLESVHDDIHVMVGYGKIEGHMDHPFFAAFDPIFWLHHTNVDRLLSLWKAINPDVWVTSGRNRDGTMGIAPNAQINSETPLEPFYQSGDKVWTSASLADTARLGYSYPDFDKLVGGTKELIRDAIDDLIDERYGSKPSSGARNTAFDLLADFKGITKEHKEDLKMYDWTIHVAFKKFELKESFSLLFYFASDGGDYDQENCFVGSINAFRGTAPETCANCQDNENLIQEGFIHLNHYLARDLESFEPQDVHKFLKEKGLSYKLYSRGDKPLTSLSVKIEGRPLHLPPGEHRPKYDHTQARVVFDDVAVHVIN

Tyrosinase = biological target: T2, Tyrosinase (Agaricus bisporus, UniProt O42713); test: Inhibition of mushroom tyrosinase using L-dopa as substrate preincubated for 10 mins followed by substrate addition and measured for 5 mins by photometric analysis
T2 sequence (O42713 whole entry): T1 sequence (whole entry)

B16-F10 [7] = test: Antimelanogenic activity against C57BL/6 mouse B16F10 cells incubated for 72 hrs; assay type: functional, cell-based
[8] = Drug degradation in IMDM cell medium incubated for 24 hrs by HPLC analysis; assay type: physicochemical; conditions: read-out: Drug degradation
B16-F10 [9] = test: Antimelanogenic activity against C57BL/6 mouse B16F10 cells at 10 uM incubated for 72 hrs relative to control; assay type: functional
B16-F10 [10] = test: Cytotoxicity against C57BL/6 mouse B16F10 cells assessed as increase in cell shrinking at 50 uM incubated for 48 hrs by microscopic method; assay type: cell-based; conditions: b16-f10, 48 h
B16-F10 [11] = test: Cytotoxicity against C57BL/6 mouse B16F10 cells assessed as increase in membrane blebbing at 50 uM incubated for 48 hrs by microscopic method; assay type: cell-based; conditions: b16-f10, 48 h

Structure (SMILES)	Activity (B16-F10 [1])	Activity (B16-F10 [2])	Stability [3]	Activity (B16-F10 [4])	Stability [5]	Ratio IC50 [6]	IC50 (Tyrosinase)	Activity (B16-F10 [7])	degraded at 24 h [8]	Activity (B16-F10 [9])	Activity (B16-F10 [10])	Activity (B16-F10 [11])
OC[C@H]1O[C@@H](Oc2ccc(O)cc2)[C@H](O)[C@@H](O)[C@@H]1O	inactive	–	–	–	–	–	–	–	–	–	–	–
OC[C@H]1O[C@@H](Oc2ccc(/C=C/c3cc(O)cc(O)c3)cc2)[C@H](O)[C@@H](O)[C@@H]1O [GOB C]	25%	Non-Toxic	Stable	65%	Unstable	73	19 µM	Dose-dependent effect	30%	50%	–	–
OC[C@H]1O[C@@H](Oc2cc(O)cc(/C=C/c3ccc(O)cc3)c2)[C@H](O)[C@@H](O)[C@@H]1O [PICEID]	inactive	–	Stable	–	Stable	–	–	–	–	–	–	–
Oc1ccc(/C=C/c2cc(O)cc(O)c2)cc1 [RESVERATROL]	25%	70%	Stable	65%	Stable	–	–	Dose-dependent effect	–	50%	Toxic	Toxic
